Measurements as given in patent publication US10006166B2, “Integrating the production of carboxylated cellulose nanofibrils and cellulose nanocrystals using recyclable organic acids” (The United States of America as Represented by the …, priority 2016, dated 2018).

Procedure: UV absorption spectrophotometric methods were employed for rapidly determining the soluble acid concentration in the solution. The UV-absorption spectra for oxalic, maleic, and toluenesulfonic acids are shown in FIGS. 3, 4, and 5, respectively.
The solubilities of oxalic, maleic, and toluenesulfonic acids at different temperatures were determined from UV absorption measurements in saturated solutions at different temperatures. The measured solubility data were fit to an exponential function as shown by Eq. (1). The maximum acid concentration that can be used at a given temperature can be determined from the exponential expression.
[formula] Where s0 and B are fitting constants and listed in TABLE 1 for the three acids studied while T is in degree Kelvin.

## O=C(O)/C=C\C(=O)O [Maleic acid]
  Fitting constant B for predicting solubility using Eq. (1): 2,461
  Fitting constant s0 for predicting solubility using Eq. (1): 3.14 × 10^5
